Measurements published in EP0974351A2, “Medicament for preventing and treating gastrointestinal damage” (JOUVEINAL, priority 1998, dated 2000).

Legend:
[1] = tested on: ethanol-induced gastric lesions; test: Ethanol-induced gastric lesions in rats; assay type: in vivo; conditions: ethanol alone 41.9 ± 3.7
Description: Male Sprague-Dawley rats weighing 240 to 250 g were fasted for 24 hours and allowed free access to water prior to experiment. All test drugs were given intragastrically. Rats were pretreated with different doses of gabapentin at doses of 40 and 60 mg. Thirty minutes later indomethacin (25 mg/kg) was administered. Another group of rats received 10 mg of gabapentin twice, 3 hours apart, followed by indomethacin administration. Three hours after indomethacin treatment, the rats were killed and gastric lesions were assessed. The severity of the lesions were determined by the measurement of the square area (mm^2) of visible lesions.
To determine the effects of gabapentin on ethanol-induced gastric lesions, rats were pretreated with 1 mL of 70% ethanol, followed by gabapentin at a dose of 40 and 60 mg, respectively. Another group of rats were pretreated by 20 mg of gabapentin given twice, 3 hours apart, followed by ethanol administration. Thirty minutes later, all rats were killed and gastric lesions were assessed.

[2] = tested on: LPS-Induced Delayed (12 Hours) Allodynia; test: LPS-induced delayed (12 hours) rectal allodynia in rats; assay type: in vivo, Male Wistar rats
Excerpt: The GABA analogs also have been evaluated for their ability to control and treat gastrointestinal disorders characterized as IBD and IBS. The assay utilized to evaluate the GABA analogs measures the effects of compound on lipopolysaccharide-induced delayed rectal allodynia in rats. Intraperitoneal (IP) injections of the endotoxin lipopolysaccharide (LPS) are known to induce long-lasting hyperalgesia in somatic pain models. The following assay was designed to evaluate the effect of IP injections of LPS on pain visceral threshold in an experimental model of rectal distension.
Male Wistar rats weighing 250 to 350 g were surgically prepared for electromyography, according to a previously described technique. Rats were anesthetized by i.p. injection of acepromazine and ketamine (Imalgene 1000, Rhöne-Mérieux, Lyon, France) at doses of 0.6 and 120 mg/kg, respectively. […] Electrodes were exteriorized on the back of the neck and protected by a glass tube attached to the skin. Animals were individually housed in polypropylene cages and kept in a temperature-controlled room (21°C). They were allowed free access to water and food (UAR pellets, Epinay, France).
Electromyographic recording began 5 days after surgery. The electrical activity of abdominal striated muscles was recorded with an electroencephalograph machine (Mini VIII, Alvar, Paris, France) using a short-time constant (0.03 sec) to remove low-frequency signals (<3 Hz) and a paper speed of 3.6 cm/minute.
Rats were placed in plastic tunnels (6 cm diameter; 25 cm length) where they could not move, escape or turn around, in order to prevent damage to the balloon. They are accustomized to this procedure for 3 or 4 days before rectal distension (RD) in order to minimize stress reaction during experiments. […] The balloon used for distension was an arterial embolectomy catheter (Fogarty, Edwards Laboratories, Inc., Santa Ana, USA). RD was performed by insertion of the balloon (2-mm diameter; 2-cm long) in the rectum, at 1 cm of the anus, the catheter being fixed at the tail. It was inflated progressively by step of 0.4 mL, from 0 to 1.6 mL, each step of inflation lasting 5 minutes. To detect possible leakage, the volume of water introduced in the balloon was checked by complete removal with a syringe at the end of the distension period.
In a second series of experiments, the same group of 8 rats received IP lipopolysaccharide (E Coil, serotype 0111:B4) or its vehicle, at a dose of 1 mg/kg IP, 1 hour after a control rectal distension. […]
Statistical analysis of the number of abdominal contractions occurring during each 5-minute period during RD was performed by one-way ANOVA followed by Student's paired t-test. Values were expressed as the mean ± SEM, and differences were considered significant for p <0.05.

`NCC1(CC(=O)O)CCCCC1` [Gabapentin, 1-(aminomethyl)-cyclohexane acetic acid] gave an area of injury ([1]; 40 mg gabapentin, 1 mL of 70% ethanol) of 24.4 ± 3.5 mm^2, an area of injury ([1]; 60 mg gabapentin, 1 mL of 70% ethanol) of 18.7 ± 2.2 mm^2 and an area of injury ([1]; 2 doses of 20 mg gabapentin, 3 hours apart, then 1 mL of 70% ethanol, assessed 30 min later) of 2.1 ± 0.3 mm^2. The “Number of abdominal contractions/5 minutes” value (shortened to “Number”) ([2]; LPS (1 mg/kg) + Gabapentin (3.0 mg/kg (so in the source)) IP 30 min before distension, 12 hours after LPS, 0.4 mL, LPS + vehicle 9.7 ± 1.0, p <0.001) was 0.7 ± 0.5 abdominal contractions/5 minutes, the “% of reduction vs "LPS/vehicle"” value ([2]; LPS (1 mg/kg) + Gabapentin (3.0 mg/kg (so in the source)) IP, 0.4 mL) was -92.8% and the “Number” value ([2]; LPS (1 mg/kg) + Gabapentin (3.0 mg/kg (so in the source)) IP, 0.8 mL, LPS + vehicle 11.7 ± 1.2) was 11.9 ± 0.8 abdominal contractions/5 minutes. The “Number” value ([2]; LPS (1 mg/kg) + Gabapentin (3.0 mg/kg (so in the source)) IP, 1.2 mL, LPS + vehicle 23.5 ± 2.2) was 16.3 ± 3.2 abdominal contractions/5 minutes.
